According to patent publication EP0118120A2, “1,4-Dihydropyridine compound” (priority 1983, dated 1984):

Tests used:
[1] = test system: liver disorder induced by carbon tetrachloride; assay: Effect on liver disorder induced by carbon tetrachloride in rats, serum GOT, GPT, AlP, bilirubin (Example 26); type: in vivo, SLC-Wistar male rats; conditions: rats 9 weeks old
Experimental: (§1) Effect of the compounds according to the present invention on liver disorder induced by carbon tetrachloride
(§2) The effects of the sample compounds to be tested on hepatic disorder were evaluated by determining the levels of GOT, GPT, AlP, and bilirubin, which are known as an indicator of hepatic disorder, in serum, after administering carbon tetrachloride and the sample compounds to SLC-Wistar male rats (9 weeks old and body weight of 210 to 250 g in Tables 1, 3, and 4, and 10 weeks old and body weight of 230 to 260 g in Table 2) as follows.
(§3) Five rats were used in each test group. The sample compound (i.e., each compound listed below) was suspended at a concentration of 40 mg/ml in a 0.1% aqueous solution of Tween-80 (i.e., nonionic surfactant available from Atlas Powder Co., Ltd.). The resultant suspension was orally administered at a dose of 200 mg/kg each at 25 hours and 1 hour before the administration of carbon tetrachloride, except for the control group. For the control group to which only carbon tetrachloride was administered in the evaluation test, a 0.1% aqueous Tween-80 was orally administered at a dose of 5 ml/kg in the same manner.
(§4) Carbon tetrachloride was intraperiotoneally administered as a 10% olive oil solution at a dose of 5 ml/kg (0.5 ml/kg in terms of CC14) one hour after the final administration of the sample compound. For the control (normal) group, olive oil was intraperitoneally administered in the same manner at a dose of 5 ml/kg.
(§5) Blood samples were collected from the carotid artery under pentobarbital anesthesia, 24 hours after the administration of carbon tetrachloride. The rats were fasted for 18 to 22 hours before collecting the blood samples.
(§6) The determination of GOT and GPT in serum was carried out according to a UV method, the determination of AlP was carried cut according to Bessy-Lowry method, and the determination of bilirubin was carried out according to a diazo method.

SLC-Wistar male rats = assay: Acute toxicity, oral LD50 in rats (Example 29); type: in vivo; conditions: male rats 5 weeks old, 100 to 125 g, observed for one week, 10080 min
Text: (§7) Acute toxicity of the compounds according to the present invention

[2] = Acute toxicity, oral LD50 in rats (Example 29); type: in vivo; conditions: rat, in vivo, male rats 5 weeks old, 100 to 125 g, observed for one week
Text: as §7

[3] = Acute toxicity, oral LD50 in rats (Example 28); conditions: rat, in vivo, male rats 5 weeks old, 130 to 150 g, observed for one week
Text: as §7

[4] = test system: liver disorder induced by carbon tetrachloride; assay: Effect on liver disorder induced by carbon tetrachloride in rats, repeat with 8 weeks old rats (Example 27); type: in vivo, SLC-Wistar male rats; conditions: Table 5, serum 24 hours after CCl4, 200 mg/kg orally x2, rats 8 weeks old; for GOT: 170 to 210 g, CCl4 only 27875 ± 3628, normal 78 ± 3; for Bilirubin: CCl4 only 0.55 ± 0.16, normal 0.10 ± 0.00; for AlP: CCl4 only 41.3 ± 2.5, normal 25.7 ± 0.4; for GPT: CCl4 only 12984 ± 1465, normal 30 ± 3
Experimental: as §2, §3, §4, §5, §6, §1
The evaluation tests of Example 26 were repeated except that SLC-Wistar male rats (8 weeks old and body weight of 170 to 210 g) were used.

[5] = Table 3, serum 24 hours after CCl4, 200 mg/kg orally x2, CCl4 only 0.38 ± 0.06, normal 0.22 ± 0.04
[6] = Table 3, serum 24 hours after CCl4, 200 mg/kg orally x2, CCl4 only 34.4 ± 2.6, normal 27.0 ± 0.5
[7] = Table 3, serum 24 hours after CCl4, 200 mg/kg orally x2, CCl4 only 9188 ± 1815, normal 30 ± 2
[8] = Table 3, serum 24 hours after CCl4, 200 mg/kg orally x2, CCl4 only 13189 ± 2205, normal 81 ± 3
[9] = Table 4, serum 24 hours after CCl4, 200 mg/kg orally x2, CCl4 only 0.38 ± 0.04, normal 0.10 ± 0.00
[10] = Table 4, serum 24 hours after CCl4, 200 mg/kg orally x2, CCl4 only 35.0 ± 2.0, normal 24.4 ± 0.7
[11] = Table 4, serum 24 hours after CCl4, 200 mg/kg orally x2, CCl4 only 10523 ± 2313, normal 31 ± 3
[12] = Table 4, serum 24 hours after CCl4, 200 mg/kg orally x2, CCl4 only 17704 ± 4140, normal 76 ± 4

With “3,5-dicyano-4-[2-(5,6-dihydro-p--dioxinyl)]-2,6-dimethyl-1,4-dihvdropyridine [Sample Compound A]” the GOT ([1]; Table 1, serum 24 hours after CCl4 0.5 ml/kg i.p., compound 200 mg/kg orally 25 hours and 1 hour before CCl4, CCl4 only 17327 ± 2336, normal 76 ± 1) was 3874 ± 792 K.U, the Bilirubin ([1]; Table 1, serum 24 hours after CCl4, 200 mg/kg orally x2, CCl4 only 0.62 ± 0.30, normal 0.10 ± 0.00) was 0.24 ± 0.02 mg/dL and the AlP ([1]; Table 1, serum 24 hours after CCl4, 200 mg/kg orally x2, CCl4 only 35.5 ± 2.5, normal 23.6 ± 0.4) was 31.4 ± 0.9 K-AU. For the same molecule, the GPT ([1]; Table 1, serum 24 hours after CCl4, 200 mg/kg orally x2, CCl4 only 10496 ± 1221, normal 31 ± 2) was 2380 ± 472 K.U and the LD50 (SLC-Wistar male rats) was “more than 1000 mg/kg”.
In the case of `COCOC(=O)C1=C(C)NC(C)=C(C(=O)OCOC)C1C1=COCCO1` [Sample Compound F, bis(methoxymethyl) 4-[2-(5,6-dihydro-p-dioxinyl)]-2,6-dimethyl-1,4-dihydrcpyridine-3,5-dicarboxylate], the Bilirubin [1, 5] is reported as 0.22 ± 0.05 mg/dL, the AlP [1, 6] is reported as 26.4 ± 1.0 K-AU and the GPT [1, 7] is reported as 274 ± 99 K.U. The GOT [1, 8] was 432 ± 107 K.U and the LD50 at 168 h [2] was > 2000 mg/kg.
`COCCOC(=O)C1=C(C)NC(C)=C(C(=O)OCCOC)C1C1=COCCO1` [Sample Compound J, bis (2-methoxyethyl) 4-[2-(5,6-dihydro-p-dioxinyl)]-2,6-dimethyl-1,4-dihydropyridine-3,5-dicarboxylate] gave a Bilirubin [1, 9] of 0.18 ± 0.03 mg/dL, an AlP [1, 10] of 27.4 ± 2.6 K-AU and a GPT [1, 11] of 626 ± 179 K.U. For the same molecule, the GOT [1, 12] was 807 ± 211 K.U and the LD50 at 168 h [3] was > 1000 mg/kg.
For `CC(=O)C1=C(C)NC(C)=C(C(C)=O)C1C1=COCCO1` [Sample Compound L, 3,5-diacetyl-4-[2-(5,6-dihydro-p-dioxinyl)]-2,6-dimethyl-1,4-dihydropyridine], the Bilirubin [1, 9] was 0.22 ± 0.02 mg/dL, the AlP [1, 10] was 34.2 ± 1.5 K-AU and the GPT [1, 11] was 285 ± 96 K.U. The GOT [1, 12] was 429 ± 113 K.U and the LD50 at 168 h [3] was > 1000 mg/kg.
In the case of `CC(=O)C1=C(C)NC(C)=C(C(C)=O)C1C1=C(C)OC(C)CO1` (centres unmarked) [Sample Compound O, 3,5-diacetyl-2,6-dimethyl-4-2-(3,5-dimethyl-5,6-dihydro-p-dioxinyl) -1,4-dihydro pyridine], the Bilirubin [1, 5] is reported as 0.26 ± 0.02 mg/dL, the AlP [1, 6] is reported as 37.2 ± 1.6 K-AU and the GPT [1, 7] is reported as 410 ± 64 K.U. For the same molecule, the GOT [1, 8] was 565 ± 98 K.U and the LD50 at 168 h [2] was > 2000 mg/kg.
In the case of `COCN1C(C)=C(C(C)=O)C(C2=COCCO2)C(C(C)=O)=C1C` [Sample Compound R, 3,5-diacetyl-4-[2-(5,6-dihydro-p-dioxinyl)]-1-methoxymethyl-2,6-dimethyl-1,4-dihydropyridine], the LD50 at 168 h [2] is reported as > 1500 mg/kg, the GOT [4] is reported as 425 ± 124 K.U and the Bilirubin [4] is reported as 0.16 ± 0.02 mg/dL. The AlP [4] was 31.4 ± 1.6 K-AU and the GPT [4] was 260 ± 98 K.U.
In the case of `COCC1=C(C2C(C(C)=O)=C(C)NC(C)=C2C(C)=O)OCCO1` [Sample Compound V, 3,5-diacetyl-4-2-(3-methoxy-methvl-5,6-dihydro-p-dioxinyl) -2,6-dimethyl-l,4-dihydropyridine], the LD50 at 168 h [2] is reported as > 2000 mg/kg, the GOT [4] is reported as 2036 ± 677 K.U and the Bilirubin [4] is reported as 0.15 ± 0.03 mg/dL. It also gave an AlP [4] of 35.6 ± 1.4 K-AU and a GPT [4] of 1251 ± 414 K.U.
